From paper PMC6429183, “Identification of Compounds That Inhibit Estrogen-Related Receptor Alpha Signaling Using High-Throughput Screening Assays” (Molecules, 2019)
Where “and” joins values, the source holds several entries; their conditions need not be identical. Equal values may be shown once. Where a name gives a salt, the structure may show the parent alone. Read-outs that look alike come from different tables or passages of the source.

Tests used:
[1] = test system: ERR reporter HEK293 cells; test: CellTiter-Fluor cell viability assay multiplexed with ERR reporter assay; type: cell-based; details: for EC50: Homo sapiens, HEK293
Method: (§1) ERR or PGC/ERR reporter HEK293 cells suspended in culture medium without puromycin were dispensed at 2500 cells/5 μL/well in tissue culture–treated 1536-well white assay plates (Greiner Bio-One North America, Monroe, NC, USA) using a Thermo Scientific Multidrop Combi (ThermoFisher Scientific, Inc.). […] After the cells were incubated at 37 °C with 5% CO2 for 6 h, 23 nL of compounds or control, XTC790, was transferred into the assay plates using a Wako Pintool station (Wako Automation, San Diego, CA, USA). The assay plates were incubated at 37 °C for 18 h, followed by the addition of 5 μL ONE-Glo luciferase reagent (Promega, Madison, WI, USA) using a Flying Reagent Dispenser (Aurora Discovery, Carlsbad, CA, USA). After 30 min of incubation at room temperature, the luminescence intensity of the assay plates was quantified using a ViewLux plate reader (PerkinElmer, Shelton, CT, USA). The assays were performed three times for each compound concentration. These ERR and PGC/ERR reporter assays were multiplexed with the CellTiter-Fluor Cell Viability Assay (Promega), a fluorescence-based cell viability assay, to assess compound cytotoxicity.
The qHTS data were analyzed as described previously. […] The DMSO-only compound plates at the beginning and end of the compound plate stack were used to correct the data set by applying an in-house pattern correction algorithm. The half maximum inhibition values (IC50) for each compound and maximum response (efficacy) values were obtained by fitting the concentration-response curves of each compound to a four-parameter Hill equation [91]. […] For each reading, the activity outcome of a test compound was first categorized by the average curve rank from the triplicate runs and the reproducibility calls. The final activity outcome of each compound was based on the ERR antagonist readout activity and cell viability counter screen.

[2] = target: T1, ERRα with PGC-1α (PGC/ERR pathway) (Homo sapiens, UniProt P11474); test: PGC/ERR reporter (luciferase) qHTS assay, PGC/ERR-HEK293; details: for PGC/ERR-HEK293 Follow-Up Efficacy: follow-up screen; for PGC/ERR-HEK293 Follow-Up Efficacy / PGC/ERR-HEK293 Primary Efficacy: negative = antagonism, positive = agonism; for PGC/ERR-HEK293 Primary Efficacy: primary qHTS
T1 sequence (P11474 1-423): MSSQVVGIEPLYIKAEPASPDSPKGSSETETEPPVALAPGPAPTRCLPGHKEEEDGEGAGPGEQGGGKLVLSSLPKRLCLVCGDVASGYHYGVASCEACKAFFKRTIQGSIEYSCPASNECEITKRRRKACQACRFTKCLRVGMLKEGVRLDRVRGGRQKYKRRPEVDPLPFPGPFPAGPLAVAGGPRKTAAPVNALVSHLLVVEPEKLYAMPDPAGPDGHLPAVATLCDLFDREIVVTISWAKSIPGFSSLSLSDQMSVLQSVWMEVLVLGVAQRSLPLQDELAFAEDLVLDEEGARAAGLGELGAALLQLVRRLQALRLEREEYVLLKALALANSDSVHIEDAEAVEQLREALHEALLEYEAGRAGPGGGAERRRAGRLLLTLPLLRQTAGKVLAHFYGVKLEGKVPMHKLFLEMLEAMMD
Method: (§3) The ERR reporter HEK293 cells were cultured in high glucose DMEM medium (ThermoFisher Scientific, Inc., Waltham, MA, USA) supplemented with 10% fetal bovine serum (FBS; ThermoFisher Scientific, Inc.), 4 mM of L-glutamine (ThermoFisher Scientific, Inc.), 1 mM of sodium pyruvate (ThermoFisher Scientific, Inc.), 100 U/mL of penicillin and 100 mg/mL of streptomycin (ThermoFisher Scientific, Inc.). PGC/ERR reporter HEK293 cells were cultured in the same medium as the ERR reporter HEK293 cells with an additional 1 μg/mL puromycin (ThermoFisher Scientific, Inc.) as the selection marker for PGC-1α expression.
(§4) The DMSO-only compound plates at the beginning and end of the compound plate stack were used to correct the data set by applying an in-house pattern correction algorithm [90]. The half maximum inhibition values (IC50) for each compound and maximum response (efficacy) values were obtained by fitting the concentration-response curves of each compound to a four-parameter Hill equation [91]. […] For each reading, the activity outcome of a test compound was first categorized by the average curve rank from the triplicate runs and the reproducibility calls. The final activity outcome of each compound was based on the ERR antagonist readout activity and cell viability counter screen.

IDH3α = test: qRT-PCR mRNA expression of ERR downstream gene IDH3α; type: cell-based; details: ERR reporter cells, vs GAPDH, DMSO = 0%
Method: (§2) Total RNA was isolated from treated ERR reporter cells using an RNeasy Mini Kit (Qiagen, Germantown, MD, USA), homogenized using a QIAshredder (Qiagen), and reverse transcribed with a High-Capacity RNA-to-cDNA™ Kit (ThermoFisher Scientific, Inc.) following the manufacturers’ instructions. Expression of ERRα, COX8α, IDH3α, PPARα, COX4I1, and cytochrome c genes was normalized against GAPDH. All primers were purchased from ThermoFisher Scientific, Inc. Real-time PCR assays were performed in 384-well plates on a QuantStudio 5 (Applied Biosystems, Foster City, CA, USA) with TaqMan™ Gene Expression Master Mix (ThermoFisher Scientific, Inc.). Induction values were calculated using the equation: Fold = 2^ΔΔCt, where ΔCt represents the differences in cycle threshold numbers between each of the target genes and GAPDH, and ΔΔCt represents the relative change in these differences between control and treatment groups. Experimental data are presented as a mean of triplicate determinations ± SD. Statistical comparisons were made by t-test, while the statistical significance was set at p values of <0.05 (light blue), <0.01 (medium blue), and <0.001 (dark blue).

cytochrome c = test: qRT-PCR mRNA expression of ERR downstream gene cytochrome c; type: cell-based; details: ERR reporter cells, vs GAPDH, DMSO = 0%
Method: as §2

[3] = test system: PGC/ERR reporter HEK293 cells; test: CellTiter-Fluor cell viability assay multiplexed with PGC/ERR reporter assay; type: cell-based; details: for EC50: Homo sapiens
Method: as §1
The qHTS data were analyzed as described previously. Each titration point was normalized relative to the positive control compound (XCT790 = −100%) and DMSO-only wells (0%) according to the following equation: % Activity = [(Vcompound − VDMSO)/(VDMSO − Vpos)] × 100, where Vcompound denotes the compound well values, Vpos denotes the median value of the positive control wells, and VDMSO denotes the median values of the DMSO-only wells. The DMSO-only compound plates at the beginning and end of the compound plate stack were used to correct the data set by applying an in-house pattern correction algorithm. The half maximum inhibition values (IC50) for each compound and maximum response (efficacy) values were obtained by fitting the concentration-response curves of each compound to a four-parameter Hill equation [91]. Compounds were designated as Class 1–4 according to the type of concentration–response curve observed. For each reading, the activity outcome of a test compound was first categorized by the average curve rank from the triplicate runs and the reproducibility calls. The final activity outcome of each compound was based on the ERR antagonist readout activity and cell viability counter screen.

COX8α = test: qRT-PCR mRNA expression of ERR downstream gene COX8α; type: cell-based; details: ERR reporter cells, vs GAPDH, DMSO = 0%
Method: as §2

[4] = target: T2, estrogen-related receptor alpha (ERRα) (Homo sapiens, UniProt P11474); test: ERR reporter (luciferase) antagonist qHTS assay, ERR-HEK293; details: for ERR-HEK293 Follow-Up Efficacy: follow-up screen; for ERR-HEK293 Follow-Up Efficacy / ERR-HEK293 Primary Efficacy: relative to XCT790 = −100%; for ERR-HEK293 Primary Efficacy: primary qHTS, DMSO = 0%
T2 sequence (P11474 1-423): T1 sequence (P11474 1-423)
Method: as §3, §4

[5] = PGC/ERR-HEK293 Follow-Up EC50, follow-up screen, mean ± SD, triplicate
[6] = PGC/ERR-HEK293 Primary EC50, primary qHTS, 18 h, mean ± SD, triplicate
[7] = ERR-HEK293 Follow-Up EC50, follow-up (confirmation) screen, mean ± SD, triplicate
[8] = ERR-HEK293 Primary EC50, primary qHTS, 18 h, 15 concentrations, mean ± SD, triplicate

| EC50 [2, 5] | EC50 [2, 6] | PGC/ERR-HEK293 Follow-Up Efficacy [2] | PGC/ERR-HEK293 Primary Efficacy [2] | EC50 [4, 7] | EC50 [4, 8] | ERR-HEK293 Follow-Up Efficacy [4] | ERR-HEK293 Primary Efficacy [4] | Compound | further results |
| --- | --- | --- | --- | --- | --- | --- | --- | --- | --- |
| 8.93 ± 4.01 µM | 6.13 ± 1.71 µM | −87.4 ± 20.8% | −77.3 ± 14.6% | 3.29 ± 2.27 µM | 3.16 ± 0.713 µM | −92.0 ± 16.0% | −88.4 ± 7.45% | COc1ccc2cc3[n+](cc2c1OC)CCc1cc2c(cc1-3)OCO2 [Berberine] | EC50 ([1]; follow-up screen, viability, read-out: ERR-HEK293 Follow-Up Viability EC50 (converted)): 12.7 µM; EC50 ([1]; primary qHTS, viability counter screen, read-out: ERR-HEK293 Primary Viability EC50 (converted)): 12.8 µM; activity in the ERR/PGC assay ([2]; in words): antagonism; Percent inhibition of mRNA gene expression, IDH3α (IDH3α; 20 µM): 15.1 ± 2.97%; Percent inhibition of mRNA gene expression, Cytochrome C (cytochrome c; 20 µM): 46.2 ± 2.61%; EC50 ([3]; HEK293, follow-up screen, read-out: PGC/ERR-HEK293 Follow-Up Viability EC50 (converted)): 17.3 µM; EC50 ([3]; HEK293, primary qHTS, read-out: PGC/ERR-HEK293 Primary Viability EC50 (converted)): 17.3 µM; Percent inhibition of mRNA gene expression, COX8α (COX8α; 20 µM): 5.15 ± 0.17%; activity in the ERR assay ([4]; in words): potent antagonists |
|  |  |  |  |  |  |  |  | CON=C(C(=O)OC)c1ccccc1CON=C(C)c1cccc(C(F)(F)F)c1 [Trifloxystrobin] | Percent inhibition of mRNA gene expression, IDH3α (IDH3α; 0.5 µM): 10.4 ± 0.21%; Percent inhibition of mRNA gene expression, COX8α (COX8α; 0.5 µM): 38.4 ± 17.2% |
| 5.26 µM | 14.1 ± 1.15 µM | −78.8 ± 7.20% | −69.1 ± 5.82% | 0.722 ± 0.285 µM | 1.24 ± 0.0837 µM | −140 ± 24.4% | −127 ± 11.8% | CC[C@@]1(O)C(=O)OCc2c1cc1n(c2=O)Cc2cc3c(CN(C)C)c(O)ccc3nc2-1 [Topotecan hydrochloride] | ERR-HEK293 Follow-Up Viability EC50 ([1]; follow-up screen, viability): Inactive; ERR-HEK293 Primary Viability EC50 ([1]; primary qHTS, viability counter screen): Inactive; PGC/ERR-HEK293 Follow-Up Viability EC50 ([3]; follow-up screen): Inactive; PGC/ERR-HEK293 Primary Viability EC50 ([3]; primary qHTS): Inactive; ERR-HEK293 Primary Efficacy ([4]; listed as topotecan): −127% |
|  |  |  |  |  |  |  |  | Nc1ncn([C@H]2C[C@H](O)[C@@H](CO)O2)c(=O)n1 [Decitabine] | Percent inhibition of mRNA gene expression, IDH3α (IDH3α; 2 µM): 5.79 ± 45.6% |

| Compound | EC50 [2, 5] | EC50 [2, 6] | PGC/ERR-HEK293 Follow-Up Efficacy [2] | PGC/ERR-HEK293 Primary Efficacy [2] | EC50 [4, 7] | EC50 [4, 8] | ERR-HEK293 Follow-Up Efficacy [4] | ERR-HEK293 Primary Efficacy [4] | further results |
| --- | --- | --- | --- | --- | --- | --- | --- | --- | --- |
| Cc1nn(C)c(Oc2ccccc2)c1C=NOCc1ccc(C(=O)OC(C)(C)C)cc1 [Fenpyroximate] | 0.0186 ± 0.021 µM | 0.00875 ± 0.000572 µM | −56.2 ± 10.5% | −36.8% and −36.8 ± 2.17% | 0.00699 ± 0.00328 µM | 0.00452 ± 0.000577 µM | −89.6 ± 6.08% | −67.1 ± 9.31% | EC50 ([2]; potency, ERR/PGC antagonist assay, primary screen): 0.0088 µM; Percent inhibition of mRNA gene expression, Cytochrome C (cytochrome c; 7.5 nM): 5.28 ± 4.56%; EC50 ([4]; potency, ERR antagonist assay, primary screen): 0.0045 µM |
